{
  "source": "patent US9387197B2",
  "about": "“Methods for treating conditions such as dystonia and post-stroke spasticity with clonidine” (Warsaw Orthopedic, Inc., priority 2008, dated 2016)",
  "tested_on": "Rat Chronic Constriction Injury Model",
  "details": "FIG. 4; days 8-64",
  "description": "A 2-month chronic constriction injury (CCI) model of neuropathic pain was used to evaluate different formulations of clonidine encapsulated in bioerodible polymers compared to clonidine given subcutaneously (SC). Different formulations as provided in Table 5 below were evaluated for reducing pain-associated behaviors: Thermal paw withdrawal latency was evaluated at baseline, 7, 14, 21, 28, 35, 42, 49, 56 and 64 days post-operatively, while mechanical threshold was evaluated at 8, 15, 22, 29, 36, 43, 50, 57 and 64 days post-operatively.\nThe inventors evaluated the efficacy of a five month Clonidine/Polymer Drug Depot in the Rat Chronic Constriction Injury Model. The animal model was the Bennett Model (Wistar rat). The purpose: To determine whether a five month polymer clonidine-eluting depot can improve pain associated behavioral responses in a rat model of neuropathic pain.\nExperimental Design: Four loose chromic gut ligatures, 1 mm apart, were tied around the common sciatic nerve at mid-thigh. Each animal received treatment of a test or control article according to the dosing described in Table 5.\nThe inventors have conducted the present study for a period of 64 days and have employed the following two tests: (1) the Hargreaves test; and (2) the von Frey test. […]",
  "data": [
    {"molecule": "Clc1cccc(Cl)c1N=C1NCCN1", "note": "[clonidine, 2,6-dichloro-N-2-imidazolidinyldenebenzenamine]", "values": [
      {"measurement": "pain behavioral response, mechanical threshold (mechanical allodynia), compared to unloaded polymer depots", "result": "reduced the behavioral response"}
    ]}
  ]
}
